Results as given in patent US11401260B2, “Biochemical binding of RET9 and VEGFR2 inhibitors” (Kala Pharmaceuticals, Inc., priority 2017, dated 2022).

How the values were obtained:
RET9 = RET9 (Homo sapiens (Human), UniProt P07949); assay: RET9 competition binding assay (DISCOVERX KINOMESCAN)
Experimental: A competition binding assay ([…]) was used to measure the ability of a compound to compete for binding of an immobilized adenosine triphosphate (ATP) site directed ligand using a DNA-tagged vascular endothelial growth receptor 2 (VEGFR2) as the target. The ability of the test compound to compete with the immobilized ligand was measured using quantitative polymerase chain reaction (qPCR) of the DNA tag (Fabian, M. A. et al., 23 Nature Biotechnology 329-336 (2005); Karaman, M. W. et al., 26 Nature Biotechnology 127-132 (2008)). Similarly, a competition binding assay ([…]) was used to determine the dissociation constant (Kd) of Compound 1 to RET9.

[1] = biological target: vascular endothelial growth receptor 2 (VEGFR2) (Homo sapiens (Human), UniProt P35968); assay: VEGFR2 competition binding assay (DISCOVERX KINOMESCAN); conditions: 11-point dose response, 3-fold serial dilution starting at 1 μM
Experimental: A competition binding assay ([…]) was used to measure the ability of a compound to compete for binding of an immobilized adenosine triphosphate (ATP) site directed ligand using a DNA-tagged vascular endothelial growth receptor 2 (VEGFR2) as the target. The ability of the test compound to compete with the immobilized ligand was measured using quantitative polymerase chain reaction (qPCR) of the DNA tag (Fabian, M. A. et al., 23 Nature Biotechnology 329-336 (2005); Karaman, M. W. et al., 26 Nature Biotechnology 127-132 (2008)). A VEGFR2 tagged T7 phage strain was prepared in an Escherichia coli (E. coli) derived from the BL21 strain. The E. coli were grown to log-phase, infected with VEGFR2 tagged T7 phage and then incubated with shaking at 32° C. until lysis. The lysate containing the kinase was then centrifuged and filtered to remove cell debris. Affinity resin for the VEGFR2 assay was prepared by treating Streptavidin-coated magnetic beads with a biotinylated small molecule ligand for 30 minutes at room temperature. […] The VEGFR2 concentration in the eluate was measured using qPCR. […] Binding constants were calculated with standard dose-response curve using the Hill equation with Hill slope set to -1. […]

vascular endothelial growth receptor 2 (VEGFR2), sequence (P35968 20-1356): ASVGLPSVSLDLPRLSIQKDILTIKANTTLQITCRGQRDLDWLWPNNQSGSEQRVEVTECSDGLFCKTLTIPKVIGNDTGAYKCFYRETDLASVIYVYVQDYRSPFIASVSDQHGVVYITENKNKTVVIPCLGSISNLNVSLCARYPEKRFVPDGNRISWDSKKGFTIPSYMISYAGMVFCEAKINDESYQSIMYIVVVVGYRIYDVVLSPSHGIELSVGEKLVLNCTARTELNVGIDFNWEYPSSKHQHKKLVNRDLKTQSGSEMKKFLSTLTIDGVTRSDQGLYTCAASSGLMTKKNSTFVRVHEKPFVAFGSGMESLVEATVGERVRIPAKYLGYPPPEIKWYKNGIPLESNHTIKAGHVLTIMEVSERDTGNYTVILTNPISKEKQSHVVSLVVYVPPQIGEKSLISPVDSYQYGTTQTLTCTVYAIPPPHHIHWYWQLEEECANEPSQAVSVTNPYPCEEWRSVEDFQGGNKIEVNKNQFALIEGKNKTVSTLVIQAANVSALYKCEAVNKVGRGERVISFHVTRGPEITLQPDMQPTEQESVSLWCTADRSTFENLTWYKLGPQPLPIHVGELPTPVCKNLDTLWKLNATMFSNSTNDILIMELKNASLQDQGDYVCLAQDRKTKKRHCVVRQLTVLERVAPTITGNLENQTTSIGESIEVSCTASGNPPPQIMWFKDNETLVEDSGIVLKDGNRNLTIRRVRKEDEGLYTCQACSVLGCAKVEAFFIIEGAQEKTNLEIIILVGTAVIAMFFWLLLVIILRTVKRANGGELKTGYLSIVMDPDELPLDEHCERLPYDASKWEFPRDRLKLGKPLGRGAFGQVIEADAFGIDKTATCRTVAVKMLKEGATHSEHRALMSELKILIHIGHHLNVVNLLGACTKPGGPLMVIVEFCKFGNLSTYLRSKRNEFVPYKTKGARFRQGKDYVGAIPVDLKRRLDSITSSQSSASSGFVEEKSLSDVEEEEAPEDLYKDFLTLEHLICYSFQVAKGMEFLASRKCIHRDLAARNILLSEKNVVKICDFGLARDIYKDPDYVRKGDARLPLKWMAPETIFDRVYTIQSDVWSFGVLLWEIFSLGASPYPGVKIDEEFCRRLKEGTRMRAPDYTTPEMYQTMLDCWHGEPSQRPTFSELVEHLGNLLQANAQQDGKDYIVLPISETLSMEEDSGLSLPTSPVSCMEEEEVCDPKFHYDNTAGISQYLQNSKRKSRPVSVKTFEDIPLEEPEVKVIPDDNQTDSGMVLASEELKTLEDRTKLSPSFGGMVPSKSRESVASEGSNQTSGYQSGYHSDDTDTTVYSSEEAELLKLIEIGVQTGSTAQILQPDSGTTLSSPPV
RET9, sequence (P07949 other isoform, or with tags, fused parts or gaps): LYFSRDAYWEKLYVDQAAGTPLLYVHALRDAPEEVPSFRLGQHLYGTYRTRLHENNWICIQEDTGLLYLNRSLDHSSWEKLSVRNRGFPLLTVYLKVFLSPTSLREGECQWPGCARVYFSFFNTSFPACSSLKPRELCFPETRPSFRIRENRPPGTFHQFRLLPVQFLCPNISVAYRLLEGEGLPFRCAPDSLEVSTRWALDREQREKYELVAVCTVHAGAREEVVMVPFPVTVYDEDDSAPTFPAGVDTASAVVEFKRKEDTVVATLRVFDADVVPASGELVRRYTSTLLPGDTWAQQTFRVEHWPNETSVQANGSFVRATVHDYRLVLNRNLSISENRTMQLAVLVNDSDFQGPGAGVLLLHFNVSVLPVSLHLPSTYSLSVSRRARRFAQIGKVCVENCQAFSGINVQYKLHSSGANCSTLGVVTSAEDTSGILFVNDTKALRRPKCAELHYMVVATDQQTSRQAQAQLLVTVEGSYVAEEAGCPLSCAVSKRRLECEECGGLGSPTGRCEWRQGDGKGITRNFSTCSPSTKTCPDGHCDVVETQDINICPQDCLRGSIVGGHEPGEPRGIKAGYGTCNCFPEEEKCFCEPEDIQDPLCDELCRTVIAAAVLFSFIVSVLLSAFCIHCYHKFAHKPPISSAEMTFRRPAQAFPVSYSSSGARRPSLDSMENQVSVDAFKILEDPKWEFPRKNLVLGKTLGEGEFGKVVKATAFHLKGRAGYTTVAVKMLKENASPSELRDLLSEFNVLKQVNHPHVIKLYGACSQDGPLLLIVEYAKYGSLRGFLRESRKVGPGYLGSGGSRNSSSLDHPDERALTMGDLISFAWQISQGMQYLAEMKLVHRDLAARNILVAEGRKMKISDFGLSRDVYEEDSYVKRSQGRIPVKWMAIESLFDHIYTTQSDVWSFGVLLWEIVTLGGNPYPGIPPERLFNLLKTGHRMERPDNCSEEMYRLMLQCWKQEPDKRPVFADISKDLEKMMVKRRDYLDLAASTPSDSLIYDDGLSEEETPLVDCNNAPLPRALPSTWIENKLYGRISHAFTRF

Kd (RET9): 3.9 nM
Kd [1]: 0.38 nM
SMILES: COc1cc2c(Oc3ccc4[nH]c(C)cc4c3F)ncnc2cc1OCCCN1CCC(CO)(CO)CC1 [Compound 1, 7-(3-[4,4-bis(hydroxymethyl)-1-piperidinyl]propoxy)-4-(4-fluoro-2-methyl-1H-indol-5-yloxy)-6-methoxyquinazoline]
